Reference: PubChem BioAssay (NCI)
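GI50 marks 50% less growth. TGI marks complete inhibition of growth.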

Experiments:
Experiment in all cases: NCI-60 cell line screen, 384-well format
786-0 renal = tested on: 786-0 renal
A498 renal = tested on: A498 renal
ACHN renal = tested on: ACHN renal
BT-549 breast = tested on: BT-549 breast
CAKI-1 renal = tested on: CAKI-1 renal
CCRF-CEM leukemia = tested on: CCRF-CEM leukemia
COLO 205 colon = tested on: COLO 205 colon
DU-145 prostate = tested on: DU-145 prostate
EKVX NSCLC = tested on: EKVX NSCLC
HCC-2998 colon = tested on: HCC-2998 colon
HCT-116 colon = tested on: HCT-116 colon
HCT-15 colon = tested on: HCT-15 colon
HL-60(TB) leukemia = tested on: HL-60(TB) leukemia
HOP-92 NSCLC = tested on: HOP-92 NSCLC
HS 578T breast = tested on: HS 578T breast
IGROV1 ovarian = tested on: IGROV1 ovarian
K-562 leukemia = tested on: K-562 leukemia
KM12 colon = tested on: KM12 colon
LOX IMVI melanoma = tested on: LOX IMVI melanoma
M14 melanoma = tested on: M14 melanoma
MCF7 breast = tested on: MCF7 breast
MDA-MB-435 melanoma = tested on: MDA-MB-435 melanoma
MDA-MB-468 breast = tested on: MDA-MB-468 breast
MOLT-4 leukemia = tested on: MOLT-4 leukemia
NCI-H226 lung = tested on: NCI-H226 lung
NCI-H23 lung = tested on: NCI-H23 lung
NCI-H322M lung = tested on: NCI-H322M lung
NCI-H460 NSCLC = tested on: NCI-H460 NSCLC
NCI-H522 lung = tested on: NCI-H522 lung
NCI/ADR-RES ovarian = tested on: NCI/ADR-RES ovarian
OVCAR-3 ovarian = tested on: OVCAR-3 ovarian
OVCAR-8 ovarian = tested on: OVCAR-8 ovarian
PC-3 prostate = tested on: PC-3 prostate
RPMI-8226 leukemia = tested on: RPMI-8226 leukemia
SF-268 CNS = tested on: SF-268 CNS
SK-MEL-2 melanoma = tested on: SK-MEL-2 melanoma
SK-MEL-28 melanoma = tested on: SK-MEL-28 melanoma
SK-OV-3 ovarian = tested on: SK-OV-3 ovarian
SN12C renal = tested on: SN12C renal
SNB-19 CNS = tested on: SNB-19 CNS
SNB-75 CNS = tested on: SNB-75 CNS
T-47D breast = tested on: T-47D breast
TK-10 renal = tested on: TK-10 renal
U251 glioblastoma = tested on: U251 glioblastoma
UACC-257 melanoma = tested on: UACC-257 melanoma
UACC-62 melanoma = tested on: UACC-62 melanoma
UO-31 renal = tested on: UO-31 renal

O=C1Nc2ccc(I)cc2/C1=C/c1cc(Br)c(O)c(Br)c1
GI50 ([…]-0 renal): 13.9 µM
TGI (786-0 renal): 27.4 µM
GI50 (A498 renal): 16 µM
TGI (A498 renal): 30.7 µM
GI50 (ACHN renal): 15.7 µM
TGI (ACHN renal): 35.7 µM
GI50 (BT-549 breast): 11.7 µM
TGI (BT-549 breast): 26.8 µM
GI50 (CAKI-1 renal): 21.3 µM
TGI (CAKI-1 renal): 43.9 µM
GI50 (CCRF-CEM leukemia): 11.3 µM
TGI (CCRF-CEM leukemia): 23.4 µM
GI50 (COLO 205 colon): 10.2 µM
TGI (COLO 205 colon): 23.5 µM
GI50 (DU-145 prostate): 22.9 µM
TGI (DU-145 prostate): 88.9 µM
GI50 (EKVX NSCLC): 14.3 µM
TGI (EKVX NSCLC): 30.2 µM
GI50 (HCC-2998 colon): 22.8 µM
TGI (HCC-2998 colon): 38 µM
GI50 (HCT-116 colon): 16.3 µM
TGI (HCT-116 colon): 30.4 µM
GI50 (HCT-15 colon): 15.7 µM
TGI (HCT-15 colon): 30.6 µM
GI50 (HL-60(TB) leukemia): 11.3 µM
TGI (HL-60(TB) leukemia): 23.4 µM
GI50 (HOP-92 NSCLC): 15.6 µM
TGI (HOP-92 NSCLC): 31.9 µM
GI50 (HS 578T breast): 14.4 µM
TGI (HS 578T breast): 28.5 µM
GI50 (IGROV1 ovarian): 18.6 µM
TGI (IGROV1 ovarian): 41 µM
GI50 (K-562 leukemia): 17 µM
TGI (K-562 leukemia): 31.1 µM
GI50 (KM12 colon): 12.5 µM
TGI (KM12 colon): 27.6 µM
GI50 (LOX IMVI melanoma): 13 µM
TGI (LOX IMVI melanoma): 29.4 µM
GI50 (M14 melanoma): 4.38 µM
TGI (M14 melanoma): 18.6 µM
GI50 (MCF7 breast): 10.1 µM
TGI (MCF7 breast): 25.3 µM
GI50 (MDA-MB-435 melanoma): 8.13 µM
TGI (MDA-MB-435 melanoma): 29.1 µM
GI50 (MDA-MB-468 breast): 11.7 µM
TGI (MDA-MB-468 breast): 25.2 µM
GI50 (MOLT-4 leukemia): 13.4 µM
TGI (MOLT-4 leukemia): 26.2 µM
GI50 (NCI-H226 lung): 27.2 µM
TGI (NCI-H226 lung): 68.5 µM
GI50 (NCI-H23 lung): 14.1 µM
TGI (NCI-H23 lung): 27.6 µM
GI50 (NCI-H322M lung): 15.7 µM
TGI (NCI-H322M lung): 39.6 µM
GI50 (NCI-H460 NSCLC): 14.9 µM
TGI (NCI-H460 NSCLC): 28.6 µM
GI50 (NCI-H522 lung): 13.2 µM
TGI (NCI-H522 lung): 26.1 µM
GI50 (NCI/ADR-RES ovarian): 18 µM
TGI (NCI/ADR-RES ovarian): 43.5 µM
GI50 (OVCAR-3 ovarian): 6.34 µM
TGI (OVCAR-3 ovarian): 19.2 µM
GI50 (OVCAR-8 ovarian): 17.2 µM
TGI (OVCAR-8 ovarian): 37.4 µM
GI50 (PC-3 prostate): 13.6 µM
TGI (PC-3 prostate): 27.1 µM
GI50 (RPMI-8226 leukemia): 6.64 µM
TGI (RPMI-8226 leukemia): 19.2 µM
GI50 (SF-268 CNS): 16.3 µM
TGI (SF-268 CNS): 52 µM
GI50 (SK-MEL-2 melanoma): 15.4 µM
TGI (SK-MEL-2 melanoma): 30.7 µM
GI50 (SK-MEL-28 melanoma): 6.3 µM
TGI (SK-MEL-28 melanoma): 34.8 µM
GI50 (SK-OV-3 ovarian): 16.2 µM
TGI (SK-OV-3 ovarian): 34.8 µM
GI50 (SN12C renal): 21.6 µM
TGI (SN12C renal): 48.5 µM
GI50 (SNB-19 CNS): 21.4 µM
TGI (SNB-19 CNS): 56.3 µM
GI50 (SNB-75 CNS): 25.7 µM
TGI (SNB-75 CNS): 51.8 µM
GI50 (T-47D breast): 12.8 µM
TGI (T-47D breast): 30 µM
GI50 (TK-10 renal): 21.6 µM
TGI (TK-10 renal): 78.1 µM
GI50 (U251 glioblastoma): 11.7 µM
TGI (U251 glioblastoma): 24.3 µM
GI50 (UACC-257 melanoma): 14.9 µM
TGI (UACC-257 melanoma): 33.3 µM
GI50 (UACC-62 melanoma): 7.69 µM
TGI (UACC-62 melanoma): 21 µM
GI50 (UO-31 renal): 13.1 µM
TGI (UO-31 renal): 28.2 µM
